What was measured:
[1] = molecular target: T1, Fibroblast growth factor receptor 1 (Homo sapiens, UniProt P11362); settings: HUVEC
Target sequence in this assay (P11362 22-822 limits assumed): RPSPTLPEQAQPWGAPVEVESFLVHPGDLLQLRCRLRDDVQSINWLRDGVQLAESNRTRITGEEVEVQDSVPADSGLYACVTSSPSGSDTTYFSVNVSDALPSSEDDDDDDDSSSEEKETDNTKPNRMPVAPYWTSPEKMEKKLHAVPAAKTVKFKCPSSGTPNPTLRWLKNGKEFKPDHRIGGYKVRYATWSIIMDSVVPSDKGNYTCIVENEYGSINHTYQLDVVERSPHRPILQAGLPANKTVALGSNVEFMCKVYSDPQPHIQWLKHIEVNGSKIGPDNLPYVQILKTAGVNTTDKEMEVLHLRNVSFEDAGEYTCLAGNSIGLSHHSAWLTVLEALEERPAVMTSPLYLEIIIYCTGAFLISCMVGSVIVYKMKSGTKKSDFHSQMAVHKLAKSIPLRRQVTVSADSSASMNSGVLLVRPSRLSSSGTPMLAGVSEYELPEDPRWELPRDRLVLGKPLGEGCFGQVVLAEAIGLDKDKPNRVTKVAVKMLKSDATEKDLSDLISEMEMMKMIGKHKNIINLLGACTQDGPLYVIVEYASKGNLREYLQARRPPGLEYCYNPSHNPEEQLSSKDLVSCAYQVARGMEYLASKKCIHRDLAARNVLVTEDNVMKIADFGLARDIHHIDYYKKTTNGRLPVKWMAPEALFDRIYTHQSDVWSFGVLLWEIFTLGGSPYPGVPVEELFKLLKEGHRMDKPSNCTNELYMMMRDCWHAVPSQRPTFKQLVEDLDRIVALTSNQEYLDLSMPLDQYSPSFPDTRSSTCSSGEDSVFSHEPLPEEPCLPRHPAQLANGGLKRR
Description: Inhibition of rhFGF2-induced cellular proliferation of HUVEC

[2] = molecular target: T1, Fibroblast growth factor receptor 1; test: Inhibition of human FGFR1 kinase expressed in insect cell by HTRF detection method
Target sequence in this assay (P11362 whole entry): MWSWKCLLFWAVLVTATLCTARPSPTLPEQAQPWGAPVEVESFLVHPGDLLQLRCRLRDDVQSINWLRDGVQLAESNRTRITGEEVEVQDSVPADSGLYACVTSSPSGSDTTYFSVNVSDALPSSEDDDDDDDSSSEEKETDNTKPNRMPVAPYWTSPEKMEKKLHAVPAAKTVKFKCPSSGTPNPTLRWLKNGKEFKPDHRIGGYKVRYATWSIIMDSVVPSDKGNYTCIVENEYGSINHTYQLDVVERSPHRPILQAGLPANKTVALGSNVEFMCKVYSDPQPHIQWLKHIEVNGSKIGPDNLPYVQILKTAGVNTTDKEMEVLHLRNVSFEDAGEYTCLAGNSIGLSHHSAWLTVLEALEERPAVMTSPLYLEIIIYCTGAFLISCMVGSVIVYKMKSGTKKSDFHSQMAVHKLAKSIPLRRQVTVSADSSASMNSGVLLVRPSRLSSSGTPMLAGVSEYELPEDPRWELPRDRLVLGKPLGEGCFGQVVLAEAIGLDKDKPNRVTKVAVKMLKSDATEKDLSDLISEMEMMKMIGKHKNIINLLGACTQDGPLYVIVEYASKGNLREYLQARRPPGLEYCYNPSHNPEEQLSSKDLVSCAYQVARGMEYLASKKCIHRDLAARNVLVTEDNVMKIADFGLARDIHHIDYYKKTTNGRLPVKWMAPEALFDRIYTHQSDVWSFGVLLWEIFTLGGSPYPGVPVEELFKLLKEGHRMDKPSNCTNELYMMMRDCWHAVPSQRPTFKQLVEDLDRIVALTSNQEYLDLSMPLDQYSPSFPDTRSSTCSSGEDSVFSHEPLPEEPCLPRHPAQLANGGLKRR

Row | MEC [1] | IC50 [2] | SMILES
1 | 0.4 µM | 400 nM | COc1cc(OC)cc(-c2ccc3c(c2)NC(=O)/C3=C\c2[nH]c(C)c(CCC(=O)O)c2C)c1
2 | 0.4 µM | 1200 nM | COc1cccc(-c2ccc3c(c2)NC(=O)/C3=C\c2[nH]c(C)c(CCC(=O)O)c2C)c1
3 | 10 µM |  | Cc1[nH]c(/C=C2\C(=O)Nc3ccccc32)c(C)c1CCC(=O)O
